Results published in US12564638B2 (SHANGHAITECH UNIVERSITY, priority 2019, dated 2026).
Where two headings read alike, the source gives them in different places.

How the values were obtained:
[1] = tested on: HCC827 cells (EGFR Exon19 del, non-small cell lung cancer cells); experiment: Cell viability assay (WST/CCK8), HCC827 cells; assay type: cell-based; conditions: Homo sapiens, HCC827, 72 h, HCC827 (Exon19 Del), 72 hours, read-out: IC50 (half inhibitory concentration)
How it was run: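 Plated 3 000 cells/well in complete RPMI1640 the day before dosing; controls were DMSO (negative) and EGFR TKIs (positive).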

[2] = tested on: PC9 cells (EGFR Exon 19 del, non-small cell lung cancer cells); experiment: Cell viability assay (WST/CCK8), PC9 cells; assay type: cell-based; conditions: Homo sapiens, PC-9, PC9 (Exon19 Del), 72 hours, read-out: IC50 (half inhibitory concentration)
From the text: The cell lines with abnormal EGFR expression used are as follows: • HCC827 cells (EGFR Exon19 del, non-small cell lung cancer cells); • PC9 cells (EGFR Exon 19 del, non-small cell lung cancer cells); • PC9BracA1 (EGFR Exon 19 del+T790M, non-small cell lung cancer cells) • H1975 (EGFR Exon T790M+L858R mutation, non-small cell lung cancer cell line) • BT474 cells (HER2 positive breast cancer cells)
All of the half inhibitory concentrations (IC50) of these compounds of the present invention were determined with WST reagent from Fuyuan Biotec Company. The specific experiment procedures are as follows: Cancer cells were planted in 96-well-plate at the density of 3 000 cells per well with 100 μL RPMI1640 completed culture medium. In the next day, compounds with indicated concentrations were added to the cells, DMSO was used as the negative control and the EGFR TKIs were used to treat cells as the positive groups. After 72 hours drug treatment, cell viability was measured by using the WST reagent following the instructions.
The cells were treated with the gradient concentration of these compounds (the maximum concentration: 10 μM; 3-fold dilution ratio, 10 concentration gradients) for 72 hours and then incubated with the WST (CCK8) reagent to determine the cell viability.

[3] = Table 6, canertinib-based compounds, WST

Row | SMILES | IC50 ([1]; WST (CCK8)) [nM] | IC50 ([2]; WST (CCK8)) [nM] | IC50 [1, 3] [nM] | IC50 [2, 3] [nM]
1 | COc1cc2ncnc(Nc3ccc(F)c(Cl)c3)c2cc1NC(=O)/C=C/CN1CCN(C(=O)CCCCCCSc2cccc3c2CN(C2CCC(=O)NC2=O)C3=O)CC1 (stereo not shown) [SIAIS219190, (E)-N-(4-((3-chloro-4-fluorophenyl)amino)-7-methoxyquinazolin-6-yl)-4-(4-(7-((2-(2,6-dioxopiperidin-3-yl)-1-oxoisoindolin-4-yl)thio)heptanoyl)piperazin-1-yl)but-2-enamide] | 18.6 | 7.2 | – | –
2 | COc1cc2ncnc(Nc3ccc(F)c(Cl)c3)c2cc1NC(=O)/C=C/CN1CCC(N2CCN(CCCCC#Cc3cccc4c3CN(C3CCC(=O)NC3=O)C4=O)CC2)CC1 (stereo not shown) [SIAIS262051, (E)-N-(4-((3-chloro-4-fluorophenyl)amino)-7-methoxyquinazolin-6-yl)-4-(4-(4-(6-(2-(2,6-dioxopiperidin-3-yl)-1-oxoisoindolin-4-yl)hex-5-yn-1-yl)piperazin-1-yl)piperidin-1-yl)but-2-enamide] | 2.5 | 2.5 | – | –
3 | COc1cc2ncnc(Nc3ccc(F)c(Cl)c3)c2cc1NC(=O)/C=C/CN1CCN(C(=O)CCCCCCNc2cccc3c2CN(C2CCC(=O)NC2=O)C3=O)CC1 (stereo not shown) [SIAIS249060, (E)-N-(4-((3-chloro-4-fluorophenyl)amino)-7-methoxyquinazolin-6-yl)-4-(4-(7-((2-(2,6-dioxopiperidin-3-yl)-1-oxoisoindolin-4-yl)amino)heptanoyl)piperazin-1-yl)but-2-enamide] | 11.5 | 16 | – | –
4 | COc1cc2ncnc(Nc3ccc(F)c(Cl)c3)c2cc1NC(=O)/C=C/CN1CCNCC1 [Dacomitinib derivative A, (E)-N-(4-((3-chloro-4-fluorophenyl)amino)-7-methoxyquinazolin-6-yl)-4-(piperazin-1-yl)but-2-enamide] | 4 | 9.7 | – | –
5 | COc1cc2ncnc(Nc3ccc(F)c(Cl)c3)c2cc1NC(=O)/C=C/CN1CCC(N2CCN(C(=O)CCC(=O)NCCOCCNc3cccc4c3C(=O)N(C3CCC(=O)NC3=O)C4=O)CC2)CC1 (stereo not shown) [SIAIS249103, (E)-N-(4-((3-chloro-4-fluorophenyl)amino)-7-methoxyquinazolin-6-yl)-4-(4-(4-(4-((2-(2-((2-(2,6-dioxopiperidin-3-yl)-1,3-dioxoisoindolin-4-yl)amino)ethoxy)ethyl)amino)-4-oxobutanoyl)piperazin-1-yl)piperidin-1-yl)but-2-enamide] | 12.8 | 20.4 | – | –
6 | C=CC(=O)Nc1cc2c(Nc3ccc(F)c(Cl)c3)ncnc2cc1OCCCN1CCN(C(=O)CCN2CCN(CCC(=O)N[C@H](C(=O)N3C[C@H](O)C[C@H]3C(=O)NCc3ccc(-c4scnc4C)cc3)C(C)(C)C)CC2)CC1 [SIAIS249101, (2S,4R)-1-((S)-2-(3-(4-(3-(4-(3-((6-acrylamido-4-((3-chloro-4-fluorophenyl)amino)quinazolin-7-yl)oxy)propyl)piperazin-1-yl)-3-oxopropyl)piperazin-1-yl)propanamido)-3,3-dimethylbutanoyl)-4-hydroxy-N-(4-(4-methylthiazol-5-yl)benzyl)pyrrolidine-2-carboxamide] | – | – | 70 | 58.5
7 | COc1cc2ncnc(Nc3ccc(F)c(Cl)c3)c2cc1NC(=O)/C=C/CN1CCN(C(=O)CNc2cccc3c2C(=O)N(C2CCC(=O)NC2=O)C3=O)CC1 (stereo not shown) [SIAIS219194, (E)-N-(4-((3-chloro-4-fluorophenyl)amino)-7-methoxyquinazolin-6-yl)-4-(4-(2-((2-(2,6-dioxopiperidin-3-yl)-1,3-dioxoisoindolin-4-yl)amino)acetyl)piperazin-1-yl)but-2-enamide] | 5.3 | 4 | – | –
8 | COc1cc2ncnc(Nc3ccc(F)c(Cl)c3)c2cc1NC(=O)/C=C/CN1CCN(C(=O)COCCOCCOCCSc2cccc3c2CN(C2CCC(=O)NC2=O)C3=O)CC1 (stereo not shown) [SIAIS262002, (E)-N-(4-((3-chloro-4-fluorophenyl)amino)-7-methoxyquinazolin-6-yl)-4-(4-(2-(2-(2-(2-((2-(2,6-dioxopiperidin-3-yl)-1-oxoisoindolin-4-yl)thio)ethoxy)ethoxy)ethoxy)acetyl)piperazin-1-yl)but-2-enamide] | 26.1 | 78 | – | –
9 | COc1cc2ncnc(Nc3ccc(F)c(Cl)c3)c2cc1NC(=O)/C=C/CN1CCN(C(=O)CCCCCCSc2cccc3c2C(=O)N(C2CCC(=O)NC2=O)C3=O)CC1 (stereo not shown) [SIAIS249039, (E)-N-(4-((3-chloro-4-fluorophenyl)amino)-7-methoxyquinazolin-6-yl)-4-(4-(7-((2-(2,6-dioxopiperidin-3-yl)-1,3-dioxoisoindolin-4-yl)thio)heptanoyl)piperazin-1-yl)but-2-enamide] | 5.2 | 18.7 | – | –
10 | COc1cc2ncnc(Nc3ccc(F)c(Cl)c3)c2cc1NC(=O)/C=C/CN1CCN(C(=O)CCCNc2cccc3c2C(=O)N(C2CCC(=O)NC2=O)C3=O)CC1 (stereo not shown) [SIAIS249062, (E)-N-(4-((3-chloro-4-fluorophenyl)amino)-7-methoxyquinazolin-6-yl)-4-(4-(4-((2-(2,6-dioxopiperidin-3-yl)-1,3-dioxoisoindolin-4-yl)amino)butanoyl)piperazin-1-yl)but-2-enamide] | 3.7 | 10 | – | –
11 | COc1cc2ncnc(Nc3ccc(F)c(Cl)c3)c2cc1NC(=O)/C=C/CN1CCN(C(=O)COCCOCCOCCOCCSc2cccc3c2C(=O)N(C2CCC(=O)NC2=O)C3=O)CC1 (stereo not shown) [SIAIS262007, (E)-N-(4-((3-chloro-4-fluorophenyl)amino)-7-methoxyquinazolin-6-yl)-4-(4-(14-((2-(2,6-dioxopiperidin-3-yl)-1,3-dioxoisoindolin-4-yl)thio)-3,6,9,12-tetraoxatetradecanoyl)piperazin-1-yl)but-2-enamide] | 26 | 84 | – | –
12 | COc1cc2ncnc(Nc3ccc(F)c(Cl)c3)c2cc1NC(=O)/C=C/CN1CCN(C(=O)CCSc2cccc3c2C(=O)N(C2CCC(=O)NC2=O)C3=O)CC1 (stereo not shown) [SIAIS249035, (E)-N-(4-((3-chloro-4-fluorophenyl)amino)-7-methoxyquinazolin-6-yl)-4-(4-(3-((2-(2,6-dioxopiperidin-3-yl)-1,3-dioxoisoindolin-4-yl)thio)propanoyl)piperazin-1-yl)but-2-enamide] | 10 | 56.5 | – | –
13 | COc1cc2ncnc(Nc3ccc(F)c(Cl)c3)c2cc1NC(=O)/C=C/CN1CCN(C(=O)CCOCCOCCOCCOCCNc2cccc3c2C(=O)N(C2CCC(=O)NC2=O)C3=O)CC1 (stereo not shown) [SIAIS262014, (E)-N-(4-((3-chloro-4-fluorophenyl)amino)-7-methoxyquinazolin-6-yl)-4-(4-(1-((2-(2,6-dioxopiperidin-3-yl)-1,3-dioxoisoindolin-4-yl)amino)-3,6,9,12-tetraoxapentadecan-15-oyl)piperazin-1-yl)but-2-enamide] | 39.5 | 128 | – | –
14 | COc1cc2ncnc(Nc3ccc(F)c(Cl)c3)c2cc1NC(=O)/C=C/CN1CCC(N2CCN(C(=O)COc3cccc4c3CN(C3CCC(=O)NC3=O)C4=O)CC2)CC1 (stereo not shown) [SIAIS337025, (E)-N-(4-((3-chloro-4-fluorophenyl)amino)-7-methoxyquinazolin-6-yl)-4-(4-(4-(2-((2-(2,6-dioxopiperidin-3-yl)-1-oxoisoindolin-4-yl)oxy)acetyl)piperazin-1-yl)piperidin-1-yl)but-2-enamide] | 5.6 | 36 | – | –
15 | COc1cc2ncnc(Nc3ccc(F)c(Cl)c3)c2cc1NC(=O)/C=C/CN1CCN(C(=O)CCC(=O)N[C@H](C(=O)N2C[C@H](O)C[C@H]2C(=O)NCc2ccc(-c3scnc3C)cc2)C(C)(C)C)CC1 [SIAIS249041, (2S,4R)-1-((S)-2-(4-(4-((E)-4-((4-((3-chloro-4-fluorophenyl)amino)-7-methoxyquinazolin-6-yl)amino)-4-oxobut-2-en-1-yl)piperazin-1-yl)-4-oxobutanamido)-3,3-dimethylbutanoyl)-4-hydroxy-N-(4-(4-methylthiazol-5-yl)benzyl)pyrrolidine-2-carboxamide] | 38.3 | 99 | – | –
16 | COc1cc2ncnc(Nc3ccc(F)c(Cl)c3)c2cc1NC(=O)/C=C/CN1CCC(N2CCN(CCCC#Cc3cccc4c3CN(C3CCC(=O)NC3=O)C4=O)CC2)CC1 (stereo not shown) [SIAIS262050, (E)-N-(4-((3-chloro-4-fluorophenyl)amino)-7-methoxyquinazolin-6-yl)-4-(4-(4-(5-(2-(2,6-dioxopiperidin-3-yl)-1-oxoisoindolin-4-yl)pent-4-yn-1-yl)piperazin-1-yl)piperidin-1-yl)but-2-enamide] | 0.8 | 9.9 | – | –
17 | COc1cc2ncnc(Nc3ccc(F)c(Cl)c3)c2cc1NC(=O)/C=C/CN1CCC(N2CCN(C(=O)CCCCCOc3cccc4c3CN(C3CCC(=O)NC3=O)C4=O)CC2)CC1 (stereo not shown) [SIAIS337027, (E)-N-(4-((3-chloro-4-fluorophenyl)amino)-7-methoxyquinazolin-6-yl)-4-(4-(4-(6-((2-(2,6-dioxopiperidin-3-yl)-1-oxoisoindolin-4-yl)oxy)hexanoyl)piperazin-1-yl)piperidin-1-yl)but-2-enamide] | 1.1 | 13.2 | – | –
